Reference: patent US20230301300A1, “HERBICIDAL COMPOSITIONS” (SYNGENTA CROP PROTECTION AG, priority 2020, published 2023)

Legend:
Experiment in all cases: B2 Post-Emergence Efficacy - Test 2
Assay type in all cases: in vivo
[1] = test system: Abutilon theophrasti (ABUTH); conditions: 15 days after application, 0-100 scale
Summary of the method: (§1)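 Post-emergence spray, 12-day-old potted plants; IF50 formulation in water + Genapol X080 0.2% v/v. Glasshouse 24/18 or 20/16 °C, 16 h light, 65% RH, watered twice daily. Rating at 15 DAA, 0 = no damage, 100 = total kill.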

[2] = test system: Alopecurus myosuroides (ALOMY); conditions: 15 days after application, 0-100 scale
Summary of the method: as §1

Beta vulgaris (BEAVA) = conditions: 15 days after application, 0-100 scale
Summary of the method: as §1

Bidens pilosa (BIDPI) = conditions: 15 days after application, 0-100 scale
Summary of the method: as §1

[3] = test system: Digitaria sanguinalis (DIGSA); conditions: 15 days after application, 0=no damage, 100=total kill
Summary of the method: as §1

[4] = test system: Echinochloa crus galli (ECHCG); conditions: 15 days after application, 0=no damage, 100=total kill
Summary of the method: as §1

[5] = test system: Euphorbia hetrophylla (EPHHL); conditions: 15 days after application, 0-100 scale
Summary of the method: as §1

Galium aparine (GALAP) = conditions: 15 days after application, 0-100 scale
Summary of the method: as §1

[6] = test system: Ipomoea hederacea (IPOHE); conditions: 15 days after application, 0-100 scale
Summary of the method: as §1

Lolium perenne (LOLPE) = conditions: 15 days after application, 0-100 scale
Summary of the method: as §1

Orysa sativa (ORYSA) = conditions: 15 days after application; for Herbicidal activity ORYSA: 0-100 scale; for Herbicidal activity on a 0-100 scale, ORYSA: 0=no damage, 100=total kill
Summary of the method: as §1

[7] = test system: Panicum miliaceum (PANMI); conditions: 15 days after application, 0=no damage, 100=total kill
Summary of the method: as §1

Poa annua (POAAN) = conditions: 15 days after application, 0-100 scale
Summary of the method: as §1

Sida spinosa (SIDSP) = conditions: 15 days after application, 0-100 scale
Summary of the method: as §1

Sinapis arvensis (SINAR) = conditions: 15 days after application, 0-100 scale
Summary of the method: as §1

Sorghum bicolour (SORVU) = conditions: 15 days after application, 0=no damage, 100=total kill
Summary of the method: as §1

Veronica persica (VERPE) = conditions: 15 days after application, 0-100 scale
Summary of the method: as §1

[8] = test system: Xanthium strumarium (XANST); conditions: 15 days after application, 0-100 scale
Summary of the method: as §1

## Cc1nn(C)c(=O)c(-c2c(F)ccc(Cl)c2CCc2ccc(C(F)(F)F)nc2)c1O [Compound 1.042, 4-[3-chloro-6-fluoro-2-[2-[6-(trifluoromethyl)-3-pyridyl]ethyl]phenyl]-5-hydroxy-2,6-dimethyl-pyridazin-3-one]
[1]; 15 g/Ha
  Herbicidal activity ABUTH: 80
[1]; 30 g/Ha
  Herbicidal activity ABUTH: 90
[1]; 60 g/Ha
  Herbicidal activity ABUTH: 100
[1]; 125 g/Ha
  Herbicidal activity ABUTH: 100
[1]; 250 g/Ha
  Herbicidal activity ABUTH: 100
[1]; 500 g/Ha
  Herbicidal activity ABUTH: 100
[2]; 15 g/Ha
  Herbicidal activity ALOMY: 20
[2]; 30 g/Ha
  Herbicidal activity ALOMY: 60
[2]; 60 g/Ha
  Herbicidal activity ALOMY: 80
[2]; 125 g/Ha
  Herbicidal activity ALOMY: 80
[2]; 250 g/Ha
  Herbicidal activity ALOMY: 90
[2]; 500 g/Ha
  Herbicidal activity ALOMY: 90
Beta vulgaris (BEAVA); 15 g/Ha
  Herbicidal activity BEAVA: 80
Beta vulgaris (BEAVA); 30 g/Ha
  Herbicidal activity BEAVA: 70
Beta vulgaris (BEAVA); 60 g/Ha
  Herbicidal activity BEAVA: 80
Beta vulgaris (BEAVA); 125 g/Ha
  Herbicidal activity BEAVA: 90
Beta vulgaris (BEAVA); 250 g/Ha
  Herbicidal activity BEAVA: 90
Beta vulgaris (BEAVA); 500 g/Ha
  Herbicidal activity BEAVA: 90
Bidens pilosa (BIDPI); 15 g/Ha
  Herbicidal activity BIDPI: 70
Bidens pilosa (BIDPI); 30 g/Ha
  Herbicidal activity BIDPI: 70
Bidens pilosa (BIDPI); 60 g/Ha
  Herbicidal activity BIDPI: 70
Bidens pilosa (BIDPI); 125 g/Ha
  Herbicidal activity BIDPI: 70
Bidens pilosa (BIDPI); 250 g/Ha
  Herbicidal activity BIDPI: 80
Bidens pilosa (BIDPI); 500 g/Ha
  Herbicidal activity BIDPI: 90
[3]; 15 g/Ha
  Herbicidal activity on a 0-100 scale, DIGSA: 0
[3]; 30 g/Ha
  Herbicidal activity on a 0-100 scale, DIGSA: 60
[3]; 60 g/Ha
  Herbicidal activity on a 0-100 scale, DIGSA: 70
[3]; 125 g/Ha
  Herbicidal activity on a 0-100 scale, DIGSA: 70
[3]; 250 g/Ha
  Herbicidal activity on a 0-100 scale, DIGSA: 80
[3]; 500 g/Ha
  Herbicidal activity on a 0-100 scale, DIGSA: 90
[4]; 15 g/Ha
  Herbicidal activity on a 0-100 scale, ECHCG: 80
[4]; 30 g/Ha
  Herbicidal activity on a 0-100 scale, ECHCG: 90
[4]; 60 g/Ha
  Herbicidal activity on a 0-100 scale, ECHCG: 90
[4]; 125 g/Ha
  Herbicidal activity on a 0-100 scale, ECHCG: 90
[4]; 250 g/Ha
  Herbicidal activity on a 0-100 scale, ECHCG: 100
[4]; 500 g/Ha
  Herbicidal activity on a 0-100 scale, ECHCG: 100
[5]; 15 g/Ha
  Herbicidal activity EPHHL: 80
[5]; 30 g/Ha
  Herbicidal activity EPHHL: 90
[5]; 60 g/Ha
  Herbicidal activity EPHHL: 90
[5]; 125 g/Ha
  Herbicidal activity EPHHL: 100
[5]; 250 g/Ha
  Herbicidal activity EPHHL: 100
[5]; 500 g/Ha
  Herbicidal activity EPHHL: 100
Galium aparine (GALAP); 15 g/Ha
  Herbicidal activity GALAP: 10
Galium aparine (GALAP); 30 g/Ha
  Herbicidal activity GALAP: 30
Galium aparine (GALAP); 60 g/Ha
  Herbicidal activity GALAP: 60
Galium aparine (GALAP); 125 g/Ha
  Herbicidal activity GALAP: 80
Galium aparine (GALAP); 250 g/Ha
  Herbicidal activity GALAP: 80
Galium aparine (GALAP); 500 g/Ha
  Herbicidal activity GALAP: 90
[6]; 15 g/Ha
  Herbicidal activity IPOHE: 100
[6]; 30 g/Ha
  Herbicidal activity IPOHE: 100
[6]; 60 g/Ha
  Herbicidal activity IPOHE: 100
[6]; 125 g/Ha
  Herbicidal activity IPOHE: 100
[6]; 250 g/Ha
  Herbicidal activity IPOHE: 100
[6]; 500 g/Ha
  Herbicidal activity IPOHE: 100
Lolium perenne (LOLPE); 15 g/Ha
  Herbicidal activity LOLPE: 60
Lolium perenne (LOLPE); 30 g/Ha
  Herbicidal activity LOLPE: 70
Lolium perenne (LOLPE); 60 g/Ha
  Herbicidal activity LOLPE: 70
Lolium perenne (LOLPE); 125 g/Ha
  Herbicidal activity LOLPE: 90
Lolium perenne (LOLPE); 250 g/Ha
  Herbicidal activity LOLPE: 90
Lolium perenne (LOLPE); 500 g/Ha
  Herbicidal activity LOLPE: 90
Orysa sativa (ORYSA); 15 g/Ha
  Herbicidal activity ORYSA: 0
  Herbicidal activity on a 0-100 scale, ORYSA: 0
Orysa sativa (ORYSA); 30 g/Ha
  Herbicidal activity ORYSA: 0
  Herbicidal activity on a 0-100 scale, ORYSA: 0
Orysa sativa (ORYSA); 60 g/Ha
  Herbicidal activity ORYSA: 0
  Herbicidal activity on a 0-100 scale, ORYSA: 0
Orysa sativa (ORYSA); 125 g/Ha
  Herbicidal activity ORYSA: 0
  Herbicidal activity on a 0-100 scale, ORYSA: 0
Orysa sativa (ORYSA); 250 g/Ha
  Herbicidal activity ORYSA: 20
  Herbicidal activity on a 0-100 scale, ORYSA: 20
Orysa sativa (ORYSA); 500 g/Ha
  Herbicidal activity ORYSA: 50
  Herbicidal activity on a 0-100 scale, ORYSA: 50
[7]; 15 g/Ha
  Herbicidal activity on a 0-100 scale, PANMI: 10
[7]; 30 g/Ha
  Herbicidal activity on a 0-100 scale, PANMI: 60
[7]; 60 g/Ha
  Herbicidal activity on a 0-100 scale, PANMI: 80
[7]; 125 g/Ha
  Herbicidal activity on a 0-100 scale, PANMI: 90
[7]; 250 g/Ha
  Herbicidal activity on a 0-100 scale, PANMI: 100
[7]; 500 g/Ha
  Herbicidal activity on a 0-100 scale, PANMI: 100
Poa annua (POAAN); 15 g/Ha
  Herbicidal activity POAAN: 20
Poa annua (POAAN); 30 g/Ha
  Herbicidal activity POAAN: 70
Poa annua (POAAN); 60 g/Ha
  Herbicidal activity POAAN: 80
Poa annua (POAAN); 125 g/Ha
  Herbicidal activity POAAN: 90
Poa annua (POAAN); 250 g/Ha
  Herbicidal activity POAAN: 90
Poa annua (POAAN); 500 g/Ha
  Herbicidal activity POAAN: 90
Sida spinosa (SIDSP); 15 g/Ha
  Herbicidal activity SIDSP: 90
Sida spinosa (SIDSP); 30 g/Ha
  Herbicidal activity SIDSP: 90
Sida spinosa (SIDSP); 60 g/Ha
  Herbicidal activity SIDSP: 100
Sida spinosa (SIDSP); 250 g/Ha
  Herbicidal activity SIDSP: 100
Sida spinosa (SIDSP); 500 g/Ha
  Herbicidal activity SIDSP: 100
Sinapis arvensis (SINAR); 15 g/Ha
  Herbicidal activity SINAR: 80
Sinapis arvensis (SINAR); 30 g/Ha
  Herbicidal activity SINAR: 90
Sinapis arvensis (SINAR); 60 g/Ha
  Herbicidal activity SINAR: 90
Sinapis arvensis (SINAR); 125 g/Ha
  Herbicidal activity SINAR: 90
Sinapis arvensis (SINAR); 250 g/Ha
  Herbicidal activity SINAR: 90
Sinapis arvensis (SINAR); 500 g/Ha
  Herbicidal activity SINAR: 90
Sorghum bicolour (SORVU); 15 g/Ha
  Herbicidal activity on a 0-100 scale, SORVU: 0
Sorghum bicolour (SORVU); 30 g/Ha
  Herbicidal activity on a 0-100 scale, SORVU: 70
Sorghum bicolour (SORVU); 60 g/Ha
  Herbicidal activity on a 0-100 scale, SORVU: 80
Sorghum bicolour (SORVU); 125 g/Ha
  Herbicidal activity on a 0-100 scale, SORVU: 90
Sorghum bicolour (SORVU); 250 g/Ha
  Herbicidal activity on a 0-100 scale, SORVU: 90
Sorghum bicolour (SORVU); 500 g/Ha
  Herbicidal activity on a 0-100 scale, SORVU: 100
Veronica persica (VERPE); 15 g/Ha
  Herbicidal activity VERPE: 80
Veronica persica (VERPE); 30 g/Ha
  Herbicidal activity VERPE: 90
Veronica persica (VERPE); 60 g/Ha
  Herbicidal activity VERPE: 100
Veronica persica (VERPE); 125 g/Ha
  Herbicidal activity VERPE: 100
Veronica persica (VERPE); 250 g/Ha
  Herbicidal activity VERPE: 100
Veronica persica (VERPE); 500 g/Ha
  Herbicidal activity VERPE: 100
[8]; 15 g/Ha
  Herbicidal activity XANST: 80
[8]; 125 g/Ha
  Herbicidal activity XANST: 90
[8]; 250 g/Ha
  Herbicidal activity XANST: 100
[8]; 500 g/Ha
  Herbicidal activity XANST: 100
